Consider 1 compound from publication PMC11840605, “Crystallographic and Thermodynamic Evidence of Negative Coupling in the Flavin-Dependent Tryptophan Halogenases AbeH and BorH” (ACS Omega, 2025).

In the assay the test system is BorH/FAD. As to the kind of experiment: Isothermal titration calorimetry, Trp into BorH preincubated with FAD. It is filed as binding, uncultured soil actinomycetes. The method, then:
ITC experiments were performed using a VP-ITC isothermal titration calorimeter (MicroCal) in 20 mM HEPES pH 7.5, 350 mM NaCl, 1 mM ethylenediamine tetraacetic acid (EDTA) and 15% (v/v) glycerol. Solutions of AbeH, BorH, FAD (Chem-Implex), and Trp (Acros Organics) were prepared in the same buffer and degassed under vacuum at 30 °C for 20 min before loading in the syringe or cell. To analyze formation of binary complexes, AbeH or BorH was placed inside the cell, and ligand (FAD or Trp) was injected. For ternary complex titration, one ligand was preincubated with the macromolecule for 30 min at 30 °C to form binary complexes of AbeH/FAD, AbeH/Trp, BorH/FAD, and BorH/Trp before titrating with the second ligand. […] Formation of FADH2 by sodium dithionite was verified using absorbance and fluorescence spectrophotometry.
ITC experiments were performed with reference power set to 10 μcal/s and Milli-Q water in the reference cell. […] Heats of dilution for all titrants were measured by titrating ligand into buffer for binary complex titrations, and by titrating ligand into a solution containing the other ligand but no protein for ternary complex titration. […]
Titrations were analyzed by manually integrating each injection, subtracting the heat of dilution, and carrying out nonlinear least-squares fit of the calorimetric binding data to a one-site model using Origin 7.0 (Origin Lab). […]
(In ITC the heat of successive injections is recorded.)

Structures are written as SMILES. Entries after “also recorded” stand apart in the source; their conditions may differ.

As to `N[C@@H](Cc1c[nH]c2ccccc12)C(=O)O` [Tryptophan, L-tryptophan], the “Binding of Trp to preincubated BorH/FAD by ITC, in words” value (21 mM Trp into 8 μM BorH preincubated with 5 mM FAD, listed as Trp) is reported as “No binding was observed; also recorded: no evidence of Trp binding”. Moreover, the “KD, Trp binding to BorH/FAD, ITC” value (BorH preincubated with FAD) is “no binding”.
